The subject of data set [1] is porcine mucin. Kind of data set: Hst 5 degradation analysis with porcine mucin (10 KDa cut-off filtrate, LC/MS). In kind it is in vitro ADME. As to conditions: 37 °C, 1 h. How it is done:
(§1) We next investigated whether the effect of these proteins on Hst 5 activity is related to complexation and Hst 5 sequestration or as a result, instead, of degradation caused by potential contaminating proteases that may be present in these commercial proteins. For this, 40 μM Hst 5 was incubated for 1 h at 37 °C with either 50 or 500 μg/mL porcine mucin or 40 μM albumin, respectively, and spun through a Centricon® 10 KDa molecular weight cut-off column that would allow Hst 5 and smaller peptides to pass through followed by Liquid Chromatography/Mass Spectrometry analysis of the eluate.
(§2) Proteolytic stability—For Hst 5 degradation analysis, Hst 5 was incubated with the required concentration of respective proteins for 1 h at 37 °C; and the reaction mixture was spun through a Centricon® 10 KDa cut-off column (Millipore UFC501024, Amicon Ultra-0.5 centrifugal filter unit with Ultracel-10 membrane), diluted in water with 2%TFA (trifluoroacetic acid) to 40 ug/mL of peptide, and analyzed by Liquid Chromatography/Mass Spectrometry utilizing a C18 column and an API3000 triple quadrupole mass spectrometer (Applied Biosystems, Foster City, CA,USA). The mass spectrum of Hst 5 gave a distribution of charge states with the most abundant being the M + 4 at 760 Da.

The subject of data set [2] is Candida albicans. In words: Candidacidal assay (microdilution plate) of Hst 5 after pre-incubation with proteins. In kind it is cell-based. As to conditions: 37 °C, 1 h. How it is done:
(§3) Candidacidal assays—The susceptibility of C. albicans cells to Hst 5 was measured using microdilution plate assays in triplicate as previously described, with some modifications for experiments involving rSap6 and mucins. Briefly, Hst 5 was incubated with the required concentration of respective proteins for 1 h at 37 °C before performing the candidacidal assay. For heat inactivated control of rSaps, protein was heat inactivated at 120 °C for 10 min before using in the candidacidal assay.
A general note: Dilution methods test growth across graded concentrations, often in twofold steps.

Data set [3] has as its target T1, albumin (Bos taurus, UniProt P02769).
T1 construct: purchased Sigma Aldrich A2153
In words: Hst 5 degradation analysis with albumin (10 KDa cut-off filtrate, LC/MS). In kind it is in vitro ADME. As to conditions: 40 μM Hst 5 with 40 μM albumin, 37 °C, 1 h, C18 column. As for the experimental part: as §1, §2

Data set [4] has as its system C. albicans Msb2 domain mutant cells. In words: Candidacidal assay on HA-tagged Msb2 domain mutant cells. The class given is cell-based, Candida albicans. Conditions: Figure 6.
From the text: C. albicans strains with HA-tagged Msb2 and its domain mutants were constructed previously. These mutants consisted of versions of Msb2 lacking each of the major functional domains: ED1/2Δ lacking residues 100–900 of the glycosylated extracellular region so that shed Msb2 is truncated with low glycosylation; ED4Δ cells lacking Msb2 residues 900–1250 within the cleavage domain of Msb2 resulting in constitutive shedding of Msb2 due to loss of cell tethering; and TM-CYTΔ cells lacking residues 1250–1409 that comprise the transmembrane and cytoplasmic signaling domain of Msb2 so that Msb2 is cleaved and shed in the absence of signaling. Briefly, Msb2 deletion derivative strains were constructed by a PCR-based approach using the URA-Blaster technique. PCR primers were designed to amplify the 3HA-URA3–3HA cassette in plasmid pCaMPY-3XHA [26], tailed with an additional 80 nucleotides of sequence flanking the open reading frame (ORF) of the region to be disrupted. PCR products were verified by gel electrophoresis. The purified PCR product (10 μg) was transformed into the Δmsb2/MSB2 strain with Frozen-EZ Yeast Transformation II Kit (Zymo Research, CA, USA). Uracil-deficient agar (YNB-URA) media was used for selection of URA positive colonies. PCR-based analysis of transformants was performed with primer pairs internal to the wild-type locus and the URA cassette. Homozygous transformants were reverted to the URA negative phenotype by selection on 5-fluororotic acid (5-FOA). Domain deletion knockouts were verified by immunoblot analysis.
as §3

In data set [5] the target is T2, rSap 6 (Candida albicans, UniProt Q5AC08).
T2 construct: made in house
T2 sequence (Q5AC08 77-418): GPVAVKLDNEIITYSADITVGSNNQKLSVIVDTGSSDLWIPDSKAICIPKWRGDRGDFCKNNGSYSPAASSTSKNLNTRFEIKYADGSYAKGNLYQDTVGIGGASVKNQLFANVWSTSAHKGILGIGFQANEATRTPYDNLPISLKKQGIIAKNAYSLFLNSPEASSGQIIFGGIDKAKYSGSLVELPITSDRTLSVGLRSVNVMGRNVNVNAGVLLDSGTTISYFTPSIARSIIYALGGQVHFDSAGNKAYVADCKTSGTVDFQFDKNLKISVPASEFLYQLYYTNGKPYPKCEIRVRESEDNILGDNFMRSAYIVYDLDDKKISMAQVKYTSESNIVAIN
Kind of data set: Proteolytic stability of Hst 5 with rSap 6 (10 KDa cut-off filtrate, LC/MS). In kind it is in vitro ADME. As to conditions: 2:1 Hst 5: Sap 6, 37 °C, 1 h, C18 column, peaks m/z 760, 608, 507. How it is done:
To further address whether Sap 6 degrades Hst 5, we spun the 2:1 Hst 5: Sap 6 incubation mixture through a Centricon® 10 KDa molecular weight cut-off column that would allow Hst 5 and smaller peptides to pass through; and subjected the eluate to Liquid Chromatography/Mass Spectrometry. […] Analysis of these fragments to determine Sap6-specific cleavage sites within Hst 5 is ongoing.
as §2

Data set [6] has as its target T3, Histatin 5 (UniProt P15516).
T3 sequence (peptide): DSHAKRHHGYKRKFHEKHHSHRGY

T1 sequence (P02769 25-607): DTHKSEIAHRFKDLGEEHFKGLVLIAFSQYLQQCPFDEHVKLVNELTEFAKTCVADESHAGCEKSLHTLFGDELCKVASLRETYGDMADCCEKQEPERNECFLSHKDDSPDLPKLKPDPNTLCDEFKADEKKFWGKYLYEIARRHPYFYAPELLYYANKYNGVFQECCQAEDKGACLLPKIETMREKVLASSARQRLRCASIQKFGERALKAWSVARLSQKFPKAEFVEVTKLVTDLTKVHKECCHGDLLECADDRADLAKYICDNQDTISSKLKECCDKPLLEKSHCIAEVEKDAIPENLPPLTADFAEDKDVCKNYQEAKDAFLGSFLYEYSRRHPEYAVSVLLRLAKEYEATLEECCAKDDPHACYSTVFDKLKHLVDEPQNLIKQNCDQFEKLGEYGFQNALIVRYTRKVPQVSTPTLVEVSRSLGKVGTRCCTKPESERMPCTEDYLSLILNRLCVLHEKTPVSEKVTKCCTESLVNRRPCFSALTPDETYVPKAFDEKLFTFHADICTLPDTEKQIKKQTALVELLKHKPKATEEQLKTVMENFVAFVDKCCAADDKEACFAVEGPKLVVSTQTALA

For `C[C@H](NC(=O)[C@H](Cc1cnc[nH]1)NC(=O)[C@H](CO)NC(=O)[C@@H](N)CC(=O)O)C(=O)N[C@@H](CCCCN)C(=O)N[C@@H](CCCNC(=N)N)C(=O)N[C@@H](Cc1cnc[nH]1)C(=O)N[C@@H](Cc1cnc[nH]1)C(=O)NCC(=O)N[C@@H](Cc1ccc(O)cc1)C(=O)N[C@@H](CCCCN)C(=O)N[C@@H](CCCNC(=N)N)C(=O)N[C@@H](CCCCN)C(=O)N[C@@H](Cc1ccccc1)C(=O)N[C@@H](Cc1cnc[nH]1)C(=O)N[C@@H](CCC(=O)O)C(=O)N[C@@H](CCCCN)C(=O)N[C@@H](Cc1cnc[nH]1)C(=O)N[C@@H](Cc1cnc[nH]1)C(=O)N[C@@H](CO)C(=O)N[C@@H](Cc1cnc[nH]1)C(=O)N[C@@H](CCCNC(=N)N)C(=O)NCC(=O)N[C@@H](Cc1ccc(O)cc1)C(=O)O` [Hst 5, Histatin 5], the “intact Hst 5 mass peaks after incubation” value was “almost complete disappearance of m/z peaks at 507 and 608” in data set [1] (40 μM Hst 5 with 500 μg/mL porcine mucin, M + 4 (760) peak still observed at lower intensity); “large dose-dependent decrease in the intensity of all three m/z peaks” in data set [1] (40 μM Hst 5 with 50 or 500 μg/mL porcine mucin, C18 column); “reduction in the peak intensity of all 3 m/z peaks for intact Hst 5 with no emergence of any significant lower m/z peaks” in data set [3]. Further, the “effect on Hst 5 candidacidal activity” value is “did not affect Hst 5 activity” in data set [2] (Hst 5 30 μM pre-incubated with heat inactivated rSap 6 (120 °C, 10 min)); “no effect on Hst 5 activity” in data set [2] (Hst 5 30 μM with porcine gut mucin 5 μg/mL); “no effect on Hst 5 activity” in data set [2] (Hst 5 30 μM with porcine gut mucin 50 μg/mL). The “Hst 5 killing compared with WT” value was “killing similar to WT Msb2-HA cells” in data set [4] (ED1/2Δ cells (release truncated Msb2 shed domain), p > 0.05); “killing similar to WT Msb2-HA cells” in data set [4] (ED4Δ cells (constitutively shed Msb2), p > 0.05); “reduced killing” in data set [4] (TM-CYTΔ cells (lack transmembrane and cytoplasmic domain of Msb2)). Moreover, the “Hst 5 killing” value in data set [4] (cells lacking Msb2 (msb2Δ, no shedding), compared to other sMsb2 defective strains) is listed as “killing was not significantly reduced”. Besides, the “intact Hst 5 mass peaks after incubation with protease” value in data set [5] is on record as “completely disappeared”.

“albumin (from UniProt P02769 25-607) (natural protein)” displayed a candidacidal activity (percent killing of C. albicans) of 30 uM Hst 5 after 1 h at 37 C with equimolar albumin; 70% without added protein in data set [6] of 50 % killing.

As for “purified full-length shed domain of Msb2 (domain or fragment)”, in data set [6], the candidacidal activity (percent killing of C. albicans) of 30 uM Hst 5 after 1 h at 37 C with equimolar sMsb2; 70% without added protein stood at 38 % killing.

B1: fetuin (natural protein)
chain: IPLDPVAGYKEPACDDPDTEQAALAAVDYINKHLPRGYKHTLNQIDSVKVWPRRPTGEVYDIEIDTLETTCHVLDPTPLANCSVRQQTQHAVEGDCDIHVLKQDGQFSVLFTKCDSSPDSAEDVRKLCPDCPLLAPLNDSRVVHAVEVALATFNAESNGSYLQLVEISRAQFVPLPVSVSVEFAVAATDCIAKEVVDPTKCNLLAEKQYGFCKGSVIQKALGGEDVRVTCTLFQTQPVIPQPQPDGAEAEAPSAVPDAAGPTPSAAGPPVASVVVGPSVVAVPLPLHRAHYDLRHTFSGVASVESSSGEAFHVGKTPIVGQPSIPGGPVRLCPGRIRYFKI
modifications: glycosylated
B1 registered a candidacidal activity (percent killing of C. albicans) of 30 uM Hst 5 after 1 h at 37 C with equimolar fetuin; 70% without added protein in data set [6] of 50 % killing.

(Values after article PMC4693163, “Candida albicans Shed Msb2 and Host Mucins Affect the Candidacidal Activity of Salivary Hst 5” (Pathogens, 2015).)
